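Briefly, cells in 96-well plates were exposed to five compound concentrations for 48 h, and endpoints were estimated by linear interpolation. Abbreviation: GI50, concentration required for 50% inhibition of growth.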 The source made the active and inactive calls. Rule as the data show it: active = GI50 up to about 1.1 µM and inactive = higher. *1 amine or outer side, *2 acyl side, *3 side chain or, on linkers, in order; H or OH if unused. Where a SMILES comes first, the peptide text is derived from it. Bridges are numbered along the chain shown (N, C = ends). [ ]: non-standard residue; d: D form. The star is where a group is joined. X56 = CC(C)C(C)C(C(=O)[*:2])N(C)[*:1]; Picolinoyl(3-OH) = O=C(c1ncccc1O)*; NMePhg = CN[CH](C(=O)O)c1ccccc1; Hyp = O=C(O)[CH]1C[CH](O)CN1; Sar = CNCC(=O)O
Assays:
Experiment in all cases: NCI tumour cell line growth inhibition, 48 h
KM-20L2 = system: KM-20L2
DLD-1 = system: DLD-1
XF498 = system: XF498
RXF 631 = system: RXF 631
BT-549 = system: BT-549
T47D = system: T47D
MDA-N = system: MDA-N
Hs-578T = system: Hs-578T
DU-145 = system: DU-145

SMILES: CCOC(=O)C(=O)Nc1cc(Cl)ccc1Cl
- GI50 (KM-20L2): > 100 µM (inactive)
- GI50 (DLD-1): > 100 µM (inactive)
- GI50 (XF498): > 100 µM (inactive)

SMILES: CC1=C[C@]2(O)C(=O)[C@H](C)C[C@H]3[C@@H](CC[C@@](C)(O)/C=C\2C1=O)C3(C)C
- GI50 (KM-20L2): 14.5 µM (inactive)
- GI50 (RXF 631): 31.1 µM (inactive)
- GI50 (DLD-1): 17.5 µM (inactive)
- GI50 (XF498): 16.3 µM (inactive)

SMILES: CSCC[C@@H]1C(=O)N(C)[C@H](C(C)(C)C)N1C(=O)c1ccccc1
- GI50 (KM-20L2): > 100 µM (inactive)
- GI50 (DLD-1): > 100 µM (inactive)
- GI50 (XF498): > 100 µM (inactive)

SMILES: CC(C)CC1NC(=O)C(NC(=O)c2ncccc2O)C(C)OC(=O)C(c2ccccc2)N(C)C(=O)C(C)NC(=O)C(C(C)C(C)C)N(C)C(=O)CN(C)C(=O)C2CC(O)CN2C1=O (stereo unspecified) ({Picolinoyl(3-OH)}-TL[Hyp][Sar][X56]A[NMePhg]; ester 1-C; configuration not given here)
- GI50 (KM-20L2): 7.93 µM (inactive)
- GI50 (DLD-1): 82.4 µM (inactive)
- GI50 (XF498): 35.6 µM (inactive)

SMILES: Cc1cc(C)nc(NS(=O)(=O)c2ccc(Nc3c4ccccc4nc4c(C(=O)Nc5ccc(S(=O)(=O)Nc6cc(C)on6)cc5)cccc34)cc2)n1
- GI50 (KM-20L2): 21 µM (inactive)
- GI50 (DLD-1): 28.1 µM (inactive)
- GI50 (XF498): 22.5 µM (inactive)

SMILES: COc1ccc(-c2ccc(CC(=O)O)cc2)cc1OC
- GI50 (KM-20L2): > 100 µM (inactive)
- GI50 (DLD-1): > 100 µM (inactive)
- GI50 (XF498): 20.7 µM (inactive)

SMILES: Cc1ccc(N2C(=O)C(=CN)C(=O)N(c3ccc(C)cc3)C2=O)cc1
- GI50 (KM-20L2): > 100 µM (inactive)
- GI50 (RXF 631): > 100 µM (inactive)
- GI50 (DLD-1): 46.8 µM (inactive)

SMILES: COc1ccc(/C(C=O)=C(\Cl)c2ccc(OC)c(OC)c2)cc1
- GI50 (KM-20L2): > 100 µM (inactive)
- GI50 (RXF 631): > 100 µM (inactive)
- GI50 (DLD-1): 15.6 µM (inactive)
- GI50 (XF498): 15.4 µM (inactive)

SMILES: Cc1ccc2[nH]c3c(C)c4cc[n+](C)cc4c(C)c3c2c1
- GI50 (KM-20L2): 3.96 µM (inactive)
- GI50 (BT-549): 0.753 µM (active)
- GI50 (T47D): 1.55 µM (inactive)
- GI50 (DLD-1): 1.67 µM (inactive)
- GI50 (MDA-N): 4.03 µM (inactive)
- GI50 (Hs-578T): 0.232 µM (active)
- GI50 (DU-145): 0.628 µM (active)

SMILES: COc1cccc2c1C(=O)c1c(O)c3c(c(O)c1C2=O)C[C@@](O)(C(C)=O)CC3S(=O)(=O)O (stereo partly specified)
- GI50 (KM-20L2): > 100 µM (inactive)
- GI50 (RXF 631): > 100 µM (inactive)
- GI50 (DLD-1): > 100 µM (inactive)
- GI50 (XF498): > 100 µM (inactive)

SMILES: COc1ccc2c(c1)[n+]([O-])c(/C(C)=N/NC(N)=S)c(C)[n+]2[O-]
- GI50 (KM-20L2): 39.4 µM (inactive)
- GI50 (BT-549): 90.4 µM (inactive)
- GI50 (RXF 631): 44.4 µM (inactive)
- GI50 (T47D): 49.2 µM (inactive)
- GI50 (DLD-1): 57.9 µM (inactive)
- GI50 (XF498): 39 µM (inactive)
- GI50 (MDA-N): 51.3 µM (inactive)
- GI50 (Hs-578T): > 100 µM (inactive)
- GI50 (DU-145): 44.2 µM (inactive)

SMILES: CCCSCC(P(=O)(O)O)P(=O)(O)O.NC1CCCCC1
- GI50 (KM-20L2): > 100 µM (inactive)
- GI50 (DLD-1): > 100 µM (inactive)
- GI50 (XF498): > 100 µM (inactive)

SMILES: O=C1c2ccccc2C(=O)C1(O)c1c[nH]c2ccccc12
- GI50 (KM-20L2): > 100 µM (inactive)
- GI50 (RXF 631): > 100 µM (inactive)
- GI50 (DLD-1): > 100 µM (inactive)
- GI50 (XF498): > 100 µM (inactive)

SMILES: NC1=NN(c2ccccc2)C(=O)C1C(=O)C(=O)Nc1ccc(Cl)cc1 (stereo unspecified)
- GI50 (KM-20L2): > 100 µM (inactive)
- GI50 (RXF 631): > 100 µM (inactive)
- GI50 (DLD-1): > 100 µM (inactive)

SMILES: CC(C)[C@@H](C)CC[C@@H](C)C1CC=C2[C@@H]3CCC4C[C@@H](O[Si](C)(C)C(C)(C)C)CC[C@]4(C)C3CC[C@@]21C (stereo partly specified)
- GI50 (KM-20L2): > 100 µM (inactive)
- GI50 (RXF 631): > 100 µM (inactive)

SMILES: COC1/C=C\C=C(/C)C(=O)NC2=CC(=O)C=C(C2=O)C(OC)C(C)CC(OC)C(OC)C(C)/C=C(/C)C1OC(N)=O (stereo unspecified)
- GI50 (KM-20L2): 3.2 µM (inactive)
- GI50 (DLD-1): 1.59 µM (inactive)
- GI50 (XF498): 1.87 µM (inactive)

SMILES: CC(C)c1cccc2sc(NC(=O)C(=O)C(C#N)c3cccc4ccccc34)nc12 (stereo unspecified)
- GI50 (KM-20L2): > 100 µM (inactive)
- GI50 (RXF 631): > 100 µM (inactive)
- GI50 (DLD-1): 98.6 µM (inactive)

SMILES: CCOC(=O)C(CC(C)C)NC(=O)C(Cc1ccc(N(CCCl)CCCl)cc1)NC(C)=O (stereo unspecified)
- GI50 (KM-20L2): 20 µM (inactive)
- GI50 (BT-549): 6.67 µM (inactive)
- GI50 (T47D): 2.17 µM (inactive)
- GI50 (XF498): 0.406 µM (active)
- GI50 (MDA-N): 2.67 µM (inactive)
- GI50 (Hs-578T): 5.12 µM (inactive)
- GI50 (DU-145): 5.93 µM (inactive)

SMILES: COc1ccc(C2C3CCCC(C3=O)C(c3ccc(OC)cc3)N2N=O)cc1 (stereo unspecified)
- GI50 (KM-20L2): 30.7 µM (inactive)
- GI50 (DLD-1): 33.9 µM (inactive)
- GI50 (XF498): 33.7 µM (inactive)

SMILES: O=S(O)c1cc(Cl)c(O)c(Cl)c1
- GI50 (RXF 631): > 100 µM (inactive)
- GI50 (DLD-1): > 100 µM (inactive)
- GI50 (XF498): > 100 µM (inactive)

SMILES: CC(C)c1cccc(C(C)C)c1NC(=O)C(=O)C1CCC2=C(Sc3ccccc3N2)C1=O (stereo unspecified)
- GI50 (KM-20L2): 86.3 µM (inactive)
- GI50 (RXF 631): 4.18 µM (inactive)
- GI50 (DLD-1): > 100 µM (inactive)

SMILES: CCCNC(=O)Nc1c([N+](=O)[O-])cc(C(F)(F)F)cc1[N+](=O)[O-]
- GI50 (KM-20L2): 26.2 µM (inactive)
- GI50 (RXF 631): 12.7 µM (inactive)
- GI50 (XF498): 35.6 µM (inactive)

SMILES: CCC1CN2CCC3(c4ccccc4)CC(C(=O)OC)=CC1C23 (stereo unspecified)
- GI50 (KM-20L2): 16.3 µM (inactive)
- GI50 (RXF 631): 15 µM (inactive)
- GI50 (DLD-1): 17.2 µM (inactive)
- GI50 (XF498): 0.183 µM (active)

SMILES: CO[C@@]12[C@H](COC(N)=O)C3=C(C(=O)C(C)=C(N)C3=O)N1C[C@@H]1N[C@@H]12 [MITOMYCIN]
- GI50 (KM-20L2): 1.3 µM (inactive)
- GI50 (BT-549): 1.75 µM (inactive)
- GI50 (DLD-1): 2.8 µM (inactive)
- GI50 (Hs-578T): 3.22 µM (inactive)

SMILES: N#CC(Nc1cccc(C(F)(F)F)c1)c1ccccc1C(F)(F)F (stereo unspecified)
- GI50 (KM-20L2): 13.8 µM (inactive)
- GI50 (DLD-1): 15.9 µM (inactive)
- GI50 (XF498): 3.94 µM (inactive)

SMILES: OCC12C=CC(C1)c1ccccc12 (stereo unspecified)
- GI50 (KM-20L2): > 100 µM (inactive)
- GI50 (RXF 631): > 100 µM (inactive)
- GI50 (DLD-1): > 100 µM (inactive)

SMILES: CCOC(=O)c1ccc(O)cc1 [ETHYLPARABEN]
- GI50 (KM-20L2): > 100 µM (inactive)
- GI50 (RXF 631): > 100 µM (inactive)
- GI50 (DLD-1): > 100 µM (inactive)
- GI50 (XF498): > 100 µM (inactive)

SMILES: CC1=CCC2(C#N)CCC1C2O (stereo unspecified)
- GI50 (KM-20L2): 39.4 µM (inactive)
- GI50 (DLD-1): > 100 µM (inactive)
- GI50 (XF498): > 100 µM (inactive)

SMILES: N#CC1=C(N)n2c(s/c(=C\c3ccc(Cl)cc3)c2=O)=C(c2nc3ccccc3[nH]2)C1c1ccc(Cl)cc1 (stereo unspecified)
- GI50 (KM-20L2): 2.21 µM (inactive)
- GI50 (DLD-1): 3.65 µM (inactive)
- GI50 (XF498): 1.63 µM (inactive)

SMILES: C=CCCC(=O)CC(=O)OCc1ccccc1
- GI50 (KM-20L2): > 100 µM (inactive)
- GI50 (RXF 631): > 100 µM (inactive)
- GI50 (DLD-1): > 100 µM (inactive)
- GI50 (XF498): > 100 µM (inactive)

SMILES: COc1ccc2[nH]cc(/C=C(/C)c3ccncc3)c2c1
- GI50 (DLD-1): 4.52 µM (inactive)
- GI50 (XF498): 10.7 µM (inactive)

SMILES: CCCCCCCCCCCCCCCCCCC1=C(O)C(=O)C=C(OC)C1=O
- GI50 (KM-20L2): 42.9 µM (inactive)
- GI50 (DLD-1): 47.3 µM (inactive)
- GI50 (XF498): > 100 µM (inactive)

Source: ChEMBL document CHEMBL1201862, “PubChem BioAssay data set” (2004)
